Experiments:
[1] = test system: TNFα production in LPS-stimulated human monocytes; assay: Cot Monocyte TNFα Cell Based Assay; settings: Homo sapiens, Monocyte, TNFα in LPS-stimulated human monocytes; read-out: EC50 TNF
Summary of the method: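 Human monocytes (5,000 cells/well) pretreated with compound for 1 hour at 37° C (0.5% DMSO), then stimulated with 50 pg/ml LPS for 4 hours. Total TNFα measured by TR-FRET after overnight antibody incubation at room temp, expressed as percent of control between unstimulated and stimulated cells.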

[2] = target: T1, human Cot catalytic domain (30-397 amino acids) (Homo sapiens, UniProt P41279); assay: High Throughput Cot Biochemical Assay (KinEASE TR-FRET); settings: Cot biochemical HTRF (KinEASE TR-FRET) assay; read-out: IC50 HTRF
T1 construct: Purified recombinant human Cot catalytic domain (30-397 amino acids) was purchased from Cama Biosciences; purchased Cama Biosciences (so in the source)
Summary of the method: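 Recombinant human Cot catalytic domain (aa 30-397), 5 nM, with 1 μM STK3 peptide and 400 μM ATP in MOPS pH 7.0 buffer with MgOAc, DTT, BSA, NP-40, glycerol, 0.1% DMSO. Phosphorylated XL665-peptide detected by Eu-[…] antibody TR-FRET.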

T1 sequence (P41279 30-397): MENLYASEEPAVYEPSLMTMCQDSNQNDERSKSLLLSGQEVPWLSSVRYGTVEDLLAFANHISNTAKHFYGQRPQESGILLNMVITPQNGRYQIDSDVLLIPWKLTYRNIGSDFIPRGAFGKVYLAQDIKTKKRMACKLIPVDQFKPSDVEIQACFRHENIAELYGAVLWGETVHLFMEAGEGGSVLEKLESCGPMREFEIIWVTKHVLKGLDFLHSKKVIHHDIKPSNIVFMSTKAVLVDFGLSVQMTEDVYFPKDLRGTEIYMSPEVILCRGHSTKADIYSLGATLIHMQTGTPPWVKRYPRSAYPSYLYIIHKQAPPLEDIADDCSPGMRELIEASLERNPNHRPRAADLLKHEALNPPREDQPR

Row | Structure (SMILES) | EC50 [1] | IC50 [2]
1 | N#Cc1cnc2c(Cl)cc(N[C@H](c3c[nH]nn3)c3cccc(F)c3F)cc2c1Nc1cnc(F)c(F)c1 [Example 448, (S)-8-chloro-6-(((2,3-difluorophenyl)(1H-1,2,3-triazol-4-yl)methyl)amino)-4-((5,6-difluoropyridin-3-yl)amino)quinoline-3-carbonitrile] | 1860 nM | 26 nM
2 | N#Cc1cnc2c(Cl)cc(N[C@@H](c3ccc(F)cc3)c3c[nH]nn3)cc2c1Nc1ccc(Cl)c(Cl)c1F [Example 449, (S)-8-chloro-4-((3,4-dichloro-2-fluorophenyl)amino)-6-(((4-fluorophenyl)(1H-1,2,3-triazol-4-yl)methyl)amino)quinoline-3-carbonitrile] | 830 nM | 161 nM
3 | N#Cc1cnc2c(Cl)cc(N[C@@H](c3cccc(-c4ncco4)c3)c3cn(C4CC4)nn3)cc2c1Nc1cnc(F)c(F)c1 [Example 450, (S)-8-chloro-6-(((1-cyclopropyl-1H-1,2,3-triazol-4-yl)(3-(oxazol-2-yl)phenyl)methyl)amino)-4-((5,6-difluoropyridin-3-yl)amino)quinoline-3-carbonitrile] | 305 nM | 3 nM
4 | COC(C)(C)CNc1c(C#N)cnc2c(Cl)cc(N[C@@H](c3ccccc3)c3cn(C4CCN(C(C)(C)C)CC4)nn3)cc12 [Example 451] | 266 nM | 68 nM
5 | CC1(CNc2c(C#N)cnc3c(Cl)cc(N[C@@H](c4ccccc4)c4cn(C5CCN(C(C)(C)C)CC5)nn4)cc23)COC1 [Example 452, (S)-6-(((1-(1-(tert-butyl)piperidin-4-yl)-1H-1,2,3-triazol-4-yl)(phenyl)methyl)amino)-8-chloro-4-(((3-methyloxetan-3-yl)methyl)amino)quinoline-3-carbonitrile] | 420 nM | 98 nM
6 | CC1(CNc2c(C#N)cnc3c(Cl)cc(N[C@@H](c4ccccc4)c4cn(C5CCN(C(C)(C)C)CC5)nn4)cc23)CCC1 [Example 453, (S)-6-(((1-(1-(tert-butyl)piperidin-4-yl)-1H-1,2,3-triazol-4-yl)(phenyl)methyl)amino)-8-chloro-4-(((1-methylcyclobutyl)methyl)amino)quinoline-3-carbonitrile] | 231 nM | 11 nM
7 | CC(C)(C)N1CCC(n2cc([C@@H](Nc3cc(Cl)c4ncc(C#N)c(NCC5CCC5)c4c3)c3ccccc3)nn2)CC1 [Example 454, (S)-6-(((1-(1-(tert-butyl)piperidin-4-yl)-1H-1,2,3-triazol-4-yl)(phenyl)methyl)amino)-8-chloro-4-((cyclobutylmethyl)amino) quinoline-3-carbonitrile] | 1770 nM | 49 nM
8 | CC1(CNc2c(C#N)cnc3c(Cl)cc(N[C@@H](c4ccccc4)c4cn(C5CCN(C(C)(C)C)CC5)nn4)cc23)CC1 [Example 455, (S)-6-(((1-(1-(tert-butyl)piperidin-4-yl)-1H-1,2,3-triazol-4-yl)(phenyl)methyl)amino)-8-chloro-4-(((1-methylcyclopropyl)methyl)amino)quinoline-3-carbonitrile] | 171 nM | 48 nM
9 | N#Cc1cnc2c(Cl)cc(N[C@@H](c3ccc(F)cc3)c3cn(C4CC4)nn3)cc2c1Nc1cnc(F)c(F)c1 [Example 456, (S)-8-chloro-6-(((1-cyclopropyl-1H-1,2,3-triazol-4-yl)(4-fluorophenyl)methyl)amino)-4-((5,6-difluoropyridin-3-yl)amino)quinoline-3-carbonitrile] | 305 nM | 7 nM
10 | CC(C)(C)n1cc([C@@H](Nc2cc(Cl)c3ncc(C#N)c(Nc4cnc(F)c(F)c4)c3c2)c2ccc(F)cc2)nn1 [Example 457, (S)-6-(((1-(tert-butyl)-1H-1,2,3-triazol-4-yl)(4-fluorophenyl)methyl)amino)-8-chloro-4-((5,6-difluoropyridin-3-yl)amino)quinoline-3-carbonitrile] | 616 nM | 43 nM
11 | CC(C)n1cc([C@@H](Nc2cc(Cl)c3ncc(C#N)c(Nc4cnc(F)c(F)c4)c3c2)c2ccc(F)cc2)nn1 [Example 458, (S)-8-chloro-4-((5,6-difluoropyridin-3-yl)amino)-6-(((4-fluorophenyl)(1-isopropyl-1H-1,2,3-triazol-4-yl)methyl)amino)quinoline-3-carbonitrile] | 598 nM | 17 nM
12 | N#Cc1cnc2c(Cl)cc(N[C@@H](c3ccc(F)cc3)c3cn(CCCN4CCCC4)nn3)cc2c1Nc1cnc(F)c(F)c1 [Example 459] | 454 nM | 9 nM
13 | N#Cc1cnc2c(Cl)cc(N[C@H](c3c[nH]nn3)c3ccc(F)cc3F)cc2c1Nc1cnc(F)c(F)c1 [Example 460, (S)-8-chloro-6-(((2,4-difluorophenyl)(1H-1,2,3-triazol-4-yl)methyl)amino)-4-((5,6-difluoropyridin-3-yl)amino)quinoline-3-carbonitrile] | 1260 nM | 23 nM
14 | [2H][C@](Nc1cc(Cl)c2ncc(C#N)c(Nc3cnc(F)c(F)c3)c2c1)(c1ccccc1)c1c[nH]nn1 [Example 461, (S)-8-chloro-4-((5,6-difluoropyridin-3-yl)amino)-6-((phenyl(1H-1,2,3-triazol-4-yl)methyl-d)amino)quinoline-3-carbonitrile] | 1530 nM | 20 nM
15 | CS(=O)(=O)c1cccc([C@H](Nc2cc(Cl)c3ncc(C#N)c(Nc4ccc(Cl)c(Cl)c4F)c3c2)c2c[nH]nn2)c1 [Example 462, (S)-8-chloro-4-((3,4-dichloro-2-fluorophenyl)amino)-6-(((3-(methylsulfonyl)phenyl) (1H-1,2,3-triazol-4-yl)methyl)amino)quinoline-3-carbonitrile] | 787 nM | 17 nM
16 | [2H][C@](Nc1cc(Cl)c2ncc(C#N)c(Nc3ccc(Cl)c(Cl)c3F)c2c1)(c1ccccc1)c1c[nH]nn1 [Example 463, (S)-8-chloro-4-((3,4-dichloro-2-fluorophenyl)amino)-6-((phenyl(1H-1,2,3-triazol-4-yl)methyl-d)amino)quinoline-3-carbonitrile] | 1410 nM | 144 nM
17 | N#Cc1ccc([C@H](Nc2cc(Cl)c3ncc(C#N)c(Nc4ccc(Cl)c(Cl)c4F)c3c2)c2c[nH]nn2)cc1 [Example 464, (S)-8-chloro-6-(((4-cyanophenyl)(1H-1,2,3-triazol-4-yl)methyl)amino)-4-((3,4-dichloro-2-fluorophenyl)amino) quinoline-3-carbonitrile] | 694 nM | 61 nM
18 | N#Cc1cccc([C@H](Nc2cc(Cl)c3ncc(C#N)c(Nc4ccc(Cl)c(Cl)c4F)c3c2)c2c[nH]nn2)c1 [Example 465, (S)-8-chloro-6-(((3-cyanophenyl)(1H-1,2,3-triazol-4-yl)methyl)amino)-4-((3,4-dichloro-2-fluorophenyl)amino) quinoline-3-carbonitrile] | 821 nM | 41 nM
19 | N#Cc1cccc([C@H](Nc2cc(Cl)c3ncc(C#N)c(Nc4ccc(Cl)c(Cl)c4F)c3c2)c2cn(C3COC3)nn2)c1 [Example 466, (S)-8-chloro-6-(((3-cyanophenyl)(1-(oxetan-3-yl)-1H-1,2,3-triazol-4-yl)methyl)amino)-4-((3,4-dichloro-2-fluorophenyl)amino) quinoline-3-carbonitrile] | 1400 nM | 53 nM
20 | N#Cc1cnc2c(Cl)cc(N[C@H](c3cn(C4COC4)nn3)c3ccc(F)cc3F)cc2c1Nc1cnc(F)c(F)c1 [Example 467, (S)-8-chloro-6-(((2,4-difluorophenyl)(1-(oxetan-3-yl)-1H-1,2,3-triazol-4-yl)methyl)amino)-4-((5,6-difluoropyridin-3-yl)amino)quinoline-3-carbonitrile] | 978 nM | 13 nM
21 | COc1ccc(Nc2c(C#N)cnc3c(Cl)cc(N[C@@H](c4ccccc4)c4cn(C(C)(C)C)nn4)cc23)cn1 [Example 468, (S)-6-(((1-(tert-butyl)-1H-1,2,3-triazol-4-yl)(phenyl)methyl)amino)-8-chloro-4-((6-methoxypyridin-3-yl)amino)quinoline-3-carbonitrile] | 3150 nM | 173 nM
22 | N#Cc1cnc2c(Cl)cc(N[C@@H](c3ccccc3)c3cn(CCCN4CCCC4)nn3)cc2c1Nc1ccc(F)c(C#N)c1F [Example 469, (S)-8-chloro-4-((3-cyano-2,4-difluorophenyl)amino)-6-((phenyl(1-(3-(pyrrolidin-1-yl)propyl)-1H-1,2,3-triazol-4-yl)methyl)amino)quinoline-3-carbonitrile] | 315 nM | 14 nM
23 | CC(C)(C)N1CCC(n2cc([C@@H](Nc3cc(Cl)c4ncc(C#N)c(Nc5ccc(F)c(C#N)c5F)c4c3)c3ccccc3)nn2)CC1 [Example 470, (S)-6-(((1-(1-(tert-butyl)piperidin-4-yl)-1H-1,2,3-triazol-4-yl)(phenyl)methyl)amino)-8-chloro-4-((3-cyano-2,4-difluorophenyl)amino) quinoline-3-carbonitrile] | 608 nM | 13 nM
24 | CC(C)(C)N1CCC(n2cc([C@@H](Nc3cc(Cl)c4ncc(C#N)c(Nc5ccc(F)cc5C#N)c4c3)c3ccccc3)nn2)CC1 [Example 471, (S)-6-(((1-(1-(tert-butyl)piperidin-4-yl)-1H-1,2,3-triazol-4-yl)(phenyl)methyl)amino)-8-chloro-4-((2-cyano-4-fluorophenyl)amino) quinoline-3-carbonitrile] | 8640 nM | 333 nM
